The values that follow come from patent US12410141B2, “Anti-cancer spirocyclic-guanidine compounds and uses thereof” (The Johns Hopkins University, priority 2020, dated 2025).

For data set [1] the following is noted: under these conditions; reference (34); cited from earlier work.
The target of data set [2] is T1, 42 kDa cellular protein previously identified as RPN13 (Homo sapiens, UniProt Q16186).
T1 construct: endogenous in cells; host or cells: ES2 cell lysate (clarified, in MPER buffer)
Nature of the data set: Labeling of ES2 cell lysate with biotinylated probes. The class given is binding. To be noted: 45 min at 4° C., streptavidin-HRP. On the procedure: (§1) ES2 cell lysates were incubated with 20 μM RA190B for 45 min at 4° C., and then separated by SDS-PAGE, transferred to a PVDF membrane.
The lysates were then separated by SDS-PAGE, transferred to a PVDF membrane.

Another data set has as its target T2, 42 kDa RPN13 (Homo sapiens, UniProt Q16186).
T2 construct: endogenous in cells; host or cells: ES2 cell lysate (clarified, in MPER buffer)
Nature of the data set: RA190B competitive labeling assay in ES2 cell lysate. The class given is binding. The following applies: ES2 cell lysate pre-incubated 45 min at 4° C. (bortezomib or Up compounds 5 μM), then RA190B 20 μM. On the procedure:
(§2) Clarified cell lysate (40 ug/sample) in MPER buffer was pretreated with streptavidin-coated magnetic beads for 45 min at 4° C. to deplete non-specific biotinylated proteins in the cell lysate. […] Next, the samples were mixed with Laemmli sample buffer (BioRad) and boiled for 5 min. The proteins were separated using a 4-15% Bio-Rad Mini-PROTEAN SDS-PAGE gel (1 hr at 100 V), and transferred to PVDF membrane overnight at 4° C. (24 V). The membrane was blocked with 5% BSA in PBST for 1 hr at RT and washed for 20 minutes (3× with PBST). Then the membrane was probed with HRP-streptavidin (1:10,000 in PBST) for 1 hr at RT, washed for 30 min (3× with PBST), and developed using HyGLO chemiluminescent detection reagent (Denville) for biotin detection.
as §1

Data set [3] has as its system high molecular weight polyubiquitinated proteins in SKOV3 cells. Nature of the data set: Western blot for polyubiquitinated proteins, SKOV3 cells. The class given is cell-based. To be noted: 12 hr, Up284 and RA475 0.5 and 1 μM, RA190 1 μM. The procedure: Cell lysate (10-20 μg total protein) prepared in MPER (Pierce) from each sample was subjected to SDS-PAGE, transferred to PVDF membranes and analyzed by Western blot using antibodies specific for ubiquitin (P4D1, sc-8017, Santa Cruz), or after stripping antibody for actin (#66009, Protein Tech Group), at the dilutions recommended by the manufacturers, and for secondary antibodies either peroxidase-linked anti-mouse IgG or anti-rabbit IgG (GE Healthcare UK Ltd) were utilized at the recommended dilution. The blots were developed using HyGLO chemiluminescent detection reagent (Denville).
Like RA190, RA475 was designed to be an inhibitor of upstream 19S RP proteasome function. […] Treatment with the same doses of Up284 (0.5 and 1 μM) or 1 μM RA190 provided positive controls, and vehicle alone (DMSO) was used as the negative control. At the end of the incubation, attached cells were lysed using MPER buffer according to the manufacturer's protocol. The lysates were subjected to Western blot analysis using antibody to ubiquitin, and then stripped and re-probed with actin antibody to provide a loading control (FIG. 5).
Proteasome inhibitors cause a rapid accumulation of polyUb proteins that is associated with unresolved UPR stress and the induction of apoptosis. Since RA475 is cytotoxic to ovarian cancer cells (Table 1), and induces such a rapid accumulation of polyUb proteins (FIG. 5), it was examined whether RA475 also triggered apoptosis. SKOV3 cells (FIG. 5A) were treated with Up284 (0.5 μM and 1 μM), 1 μM RA190, RA475 (0.5 μM and 1 μM) or vehicle alone (DMSO) and then cultured for 12 hr. OVCAR3 cells (FIG. 5B) were treated with Up284 (0.5 μM), Bortezomib (Bz, 0.25 μM), Ixazomib (Iz, 0.25 μM), RA475 (0.5 μM and 1 μM) or vehicle alone (DMSO). The attached cells were harvested and their lysates were subjected to Western blot analysis, first probed with antibody to ubiquitin and then to actin.

Another data set concerns PACS. Nature of the data set: MTT cytotoxicity assay, PACS. The data set is classed as cell-based. The following applies: ovarian (mouse), 72 hr, read-out: IC50, cell killing. The procedure: (§3) All cell lines were obtained from the American Type Culture Collection (ATCC) and cultured in the specified medium supplemented with 10% fetal bovine serum, 100 IU/mL penicillin, and 100 μg/mL streptomycin at 37° C. in a humidified 5% CO2/95% air incubator. To assess drug cytotoxicity cells were seeded at 2,500 cells/well (10,000 cells/well for MM lines and primary cells) in 100 μL medium in 96-well plate. […]
(§4) It was examined whether the RPN13 inhibitor, RA475, was cytotoxic for cancer cell lines using the MTT assay.

The subject of another data set is PEA1. Nature of the data set: MTT cytotoxicity assay, PEA1. The data set is classed as cell-based. To be noted: PEA1, ovarian, 72 hr, read-out: IC50, cell killing. The procedure:
as §3, §4
A general note: Formazan colour is commonly taken as a measure of viable cells.

In the next data set the test system is PEA2. Nature of the data set: MTT cytotoxicity assay, PEA2. The class given is cell-based. The following applies: PEA2, ovarian, 72 hr, read-out: IC50, cell killing. The procedure:
as §3, §4

The target in data set [4] is T3, 42 kDa cellular protein, consistent with RPN13 (Homo sapiens, UniProt Q16186).
T3 construct: endogenous in cells; host or cells: SKOV3 or ES2 cell lysates, pre-cleared with streptavidin-coated beads
T3 sequence (Q16186 whole entry): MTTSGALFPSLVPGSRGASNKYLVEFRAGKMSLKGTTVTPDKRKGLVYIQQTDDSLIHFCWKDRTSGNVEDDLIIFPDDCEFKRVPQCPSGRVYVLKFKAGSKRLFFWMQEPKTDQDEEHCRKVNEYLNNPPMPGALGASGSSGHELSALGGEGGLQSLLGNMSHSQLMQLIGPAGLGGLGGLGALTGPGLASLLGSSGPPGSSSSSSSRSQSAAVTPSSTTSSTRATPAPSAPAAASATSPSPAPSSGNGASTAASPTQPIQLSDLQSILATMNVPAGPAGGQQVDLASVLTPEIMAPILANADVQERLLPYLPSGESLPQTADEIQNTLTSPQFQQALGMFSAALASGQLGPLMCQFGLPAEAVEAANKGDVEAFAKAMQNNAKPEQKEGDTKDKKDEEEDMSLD
Nature of the data set: Up284B competitive labeling assay in SKOV3 or ES2 cell lysates. The class given is binding. The following applies: pre-cleared SKOV3 or ES2 lysates, 45 min at 4° C., then 5 μM Up284B. The procedure:
as §2
Briefly SKOV3 or ES2 cell lysates were first pre-cleared with streptavidin-coated beads to deplete endogenous biotinylated proteins. The pre-cleared lysates were then divided into equal aliquots. […] The lysates were then boiled in gel sample buffer, separated by SDS-PAGE, and transferred to a PVDF membrane.

T2 sequence (Q16186 whole entry): as above
T1 sequence (Q16186 whole entry): as above

For the molecule `N[C@@H](Cc1ccccc1)C(=O)N1C/C(=C\c2ccc([N+](=O)[O-])cc2)C(=O)/C(=C/c2ccc([N+](=O)[O-])cc2)C1` [RA183], in data set [1], the “metabolism under the plasma / liver microsome conditions” value was “rapidly metabolized”.
For the molecule `O=C(CCCC[C@@H]1SCC2NC(=O)NC21)N[C@@H](Cc1ccccc1)C(=O)N1C/C(=C\c2ccc(Cl)c(Cl)c2)C(=O)/C(=C/c2ccc(Cl)c(Cl)c2)C1` (some centres unmarked) [RA190B], in data set [2], the “binding of biotinylated probe to the 42 kDa cellular protein” value was “bound to the 42 kDa cellular protein”.
Regarding `N[C@@H](Cc1ccccc1)C(=O)N1C/C(=C\c2ccc(Cl)c(Cl)c2)C(=O)/C(=C/c2ccc(Cl)c(Cl)c2)C1` [RA190], at 42 kDa RPN13, the “competition with binding of RA190B to the 42 kDa RPN13” value (“competition with binding of RA190B” below) is reported as “competed with the binding of RA190B to the 42 kDa protein”. Further, in data set [3], the “accumulation of polyUb proteins” value is “profound accumulation”. In addition, the “metabolism under the plasma / liver microsome conditions” value in data set [1] is “rapidly metabolized”.
Broadly, the IC50 is the midpoint of a concentration-inhibition curve. On to `N#Cc1ccc(/C=C2/C(=O)/C(=C/c3ccc(C#N)cc3)C23CCN(C(=N)N)C3)cc1` [RA477], for which the IC50 is 0.405 µM with PACS, 0.331 µM in the data set with PEA1 and 0.312 µM with PEA2.
`C=CC(=O)N1CCC2(CC1)/C(=C\c1ccc(C#N)cc1)C(=O)/C2=C/c1ccc(C#N)cc1` [Up285]: the “competition with binding of RA190B” value at 42 kDa RPN13 was “competed”.
Turning to `CC(C)C[C@H](NC(=O)[C@H](Cc1ccccc1)NC(=O)c1cnccn1)B(O)O` [bortezomib, reference compound], the “competition with binding of Up284B probe to RPN13” value in data set [4] is listed as “not competed”. Also, the “competition with binding of RA190B” value at 42 kDa RPN13 is listed as “neither the vehicle (DMSO) nor bortezomib (negative controls) competed”.
